Results on one compound are retold here after publication PMC5053573, “Structure-Based Design of Tetrahydroisoquinoline-7-carboxamides as Selective Discoidin Domain Receptor 1 (DDR1) Inhibitors” (Journal of Medicinal Chemistry, 2016).

Targets include NEK7 (Homo sapiens, UniProt Q8TDX7); ERBB4 (Homo sapiens, UniProt Q15303); CDK2 (Homo sapiens, UniProt P24941); DYRK1A (Homo sapiens, UniProt Q13627); SYK (Homo sapiens, UniProt P43405); EGFR(L861Q) (Homo sapiens, UniProt P00533, L861Q); CSNK1G2 (Homo sapiens, UniProt P78368).
What all share (assay): biochemical
Holding throughout (settings): read-out: %Ctrl @ 1000nM

The target in the next experiment is T1, PCTK2 (Homo sapiens, UniProt Q00537).
T1 construct: gene CDK17
T1 sequence (Q00537 whole entry): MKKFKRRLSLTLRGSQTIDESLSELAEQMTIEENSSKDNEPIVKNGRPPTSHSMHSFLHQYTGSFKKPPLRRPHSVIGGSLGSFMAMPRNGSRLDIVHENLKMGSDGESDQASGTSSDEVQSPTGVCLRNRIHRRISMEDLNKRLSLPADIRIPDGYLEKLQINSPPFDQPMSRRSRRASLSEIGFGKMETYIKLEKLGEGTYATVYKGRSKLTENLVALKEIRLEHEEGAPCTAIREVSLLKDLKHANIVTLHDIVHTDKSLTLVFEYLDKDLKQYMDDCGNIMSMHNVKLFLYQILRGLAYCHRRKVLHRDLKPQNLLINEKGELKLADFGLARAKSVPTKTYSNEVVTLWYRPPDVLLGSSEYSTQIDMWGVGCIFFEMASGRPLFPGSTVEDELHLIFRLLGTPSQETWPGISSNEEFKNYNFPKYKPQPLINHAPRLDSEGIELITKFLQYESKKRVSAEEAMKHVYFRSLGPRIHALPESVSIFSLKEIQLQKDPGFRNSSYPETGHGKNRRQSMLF

Another experiment concerns the target T2, TIE2 (Homo sapiens, UniProt Q02763).
T2 construct: gene TEK

T2 sequence (Q02763 whole entry): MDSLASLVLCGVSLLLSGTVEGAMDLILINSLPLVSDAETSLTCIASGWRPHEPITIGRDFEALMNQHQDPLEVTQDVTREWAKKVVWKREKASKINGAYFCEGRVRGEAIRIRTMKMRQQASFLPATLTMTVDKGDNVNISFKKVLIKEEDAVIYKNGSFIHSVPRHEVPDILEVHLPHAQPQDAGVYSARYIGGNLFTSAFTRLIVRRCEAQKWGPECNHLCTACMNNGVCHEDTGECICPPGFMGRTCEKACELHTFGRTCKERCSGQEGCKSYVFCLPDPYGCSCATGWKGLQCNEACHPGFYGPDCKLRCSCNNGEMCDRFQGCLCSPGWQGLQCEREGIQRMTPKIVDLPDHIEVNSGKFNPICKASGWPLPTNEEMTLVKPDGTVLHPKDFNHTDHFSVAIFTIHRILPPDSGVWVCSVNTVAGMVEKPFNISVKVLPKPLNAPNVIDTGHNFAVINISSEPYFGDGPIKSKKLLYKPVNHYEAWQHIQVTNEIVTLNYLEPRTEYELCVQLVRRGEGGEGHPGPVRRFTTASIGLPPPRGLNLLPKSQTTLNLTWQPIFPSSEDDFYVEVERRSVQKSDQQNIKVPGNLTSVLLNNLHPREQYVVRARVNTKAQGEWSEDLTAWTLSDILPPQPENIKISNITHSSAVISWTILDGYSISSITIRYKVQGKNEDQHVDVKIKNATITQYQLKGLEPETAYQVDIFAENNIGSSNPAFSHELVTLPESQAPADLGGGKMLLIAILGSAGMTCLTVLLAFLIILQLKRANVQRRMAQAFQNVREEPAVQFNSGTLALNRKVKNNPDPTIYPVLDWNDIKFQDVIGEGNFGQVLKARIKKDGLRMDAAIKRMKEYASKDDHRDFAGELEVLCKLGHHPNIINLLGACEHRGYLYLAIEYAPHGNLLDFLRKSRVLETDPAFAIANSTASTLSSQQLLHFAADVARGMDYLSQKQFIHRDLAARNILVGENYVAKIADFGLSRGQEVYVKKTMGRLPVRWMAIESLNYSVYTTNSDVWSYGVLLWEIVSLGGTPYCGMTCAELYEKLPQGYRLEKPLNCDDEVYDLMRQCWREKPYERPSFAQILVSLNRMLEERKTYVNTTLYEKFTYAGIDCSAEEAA
Sequence of NEK7 (Q8TDX7 whole entry): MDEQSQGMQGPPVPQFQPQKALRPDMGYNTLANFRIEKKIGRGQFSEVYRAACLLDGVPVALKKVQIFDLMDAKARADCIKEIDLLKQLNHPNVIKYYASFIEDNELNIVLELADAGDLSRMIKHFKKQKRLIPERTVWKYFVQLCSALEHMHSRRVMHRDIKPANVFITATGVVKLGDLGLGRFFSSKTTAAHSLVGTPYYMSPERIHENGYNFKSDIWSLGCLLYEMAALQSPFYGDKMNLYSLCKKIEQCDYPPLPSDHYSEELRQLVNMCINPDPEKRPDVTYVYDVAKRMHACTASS
Sequence of ERBB4 (Q15303 whole entry): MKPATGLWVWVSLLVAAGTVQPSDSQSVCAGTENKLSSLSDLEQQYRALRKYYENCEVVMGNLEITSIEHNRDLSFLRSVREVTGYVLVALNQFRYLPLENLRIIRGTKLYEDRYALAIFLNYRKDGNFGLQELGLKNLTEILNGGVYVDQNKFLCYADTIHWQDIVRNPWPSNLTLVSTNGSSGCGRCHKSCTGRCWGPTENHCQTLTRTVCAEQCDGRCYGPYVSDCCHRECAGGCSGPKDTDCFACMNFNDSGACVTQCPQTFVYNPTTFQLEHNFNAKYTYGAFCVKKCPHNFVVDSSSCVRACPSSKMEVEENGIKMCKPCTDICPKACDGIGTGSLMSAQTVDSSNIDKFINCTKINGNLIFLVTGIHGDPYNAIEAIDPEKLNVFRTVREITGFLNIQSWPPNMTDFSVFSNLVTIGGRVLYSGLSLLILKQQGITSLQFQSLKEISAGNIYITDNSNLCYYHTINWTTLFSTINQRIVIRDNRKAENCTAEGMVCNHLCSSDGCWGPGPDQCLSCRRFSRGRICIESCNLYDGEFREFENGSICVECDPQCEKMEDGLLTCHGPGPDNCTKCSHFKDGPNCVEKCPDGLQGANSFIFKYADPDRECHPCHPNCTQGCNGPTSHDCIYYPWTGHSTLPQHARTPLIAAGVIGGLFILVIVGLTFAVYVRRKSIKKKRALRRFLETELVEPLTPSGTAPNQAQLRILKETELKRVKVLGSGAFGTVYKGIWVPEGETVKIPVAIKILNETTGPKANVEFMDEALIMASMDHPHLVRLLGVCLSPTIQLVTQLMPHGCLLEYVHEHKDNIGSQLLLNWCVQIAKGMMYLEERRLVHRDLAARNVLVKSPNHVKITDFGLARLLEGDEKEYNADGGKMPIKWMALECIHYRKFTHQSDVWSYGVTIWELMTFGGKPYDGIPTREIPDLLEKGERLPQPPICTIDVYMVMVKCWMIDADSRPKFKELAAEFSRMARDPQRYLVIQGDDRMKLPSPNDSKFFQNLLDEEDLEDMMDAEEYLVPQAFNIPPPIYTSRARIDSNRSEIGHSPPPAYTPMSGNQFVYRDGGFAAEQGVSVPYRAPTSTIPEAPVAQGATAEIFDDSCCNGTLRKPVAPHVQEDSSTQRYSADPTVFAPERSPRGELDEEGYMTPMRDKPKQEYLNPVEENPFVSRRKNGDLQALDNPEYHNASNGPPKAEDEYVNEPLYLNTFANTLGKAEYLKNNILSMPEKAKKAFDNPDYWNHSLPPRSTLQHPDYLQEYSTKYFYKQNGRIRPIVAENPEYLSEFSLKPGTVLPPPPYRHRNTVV
Sequence of EGFR(L861Q) (P00533 whole entry L861Q): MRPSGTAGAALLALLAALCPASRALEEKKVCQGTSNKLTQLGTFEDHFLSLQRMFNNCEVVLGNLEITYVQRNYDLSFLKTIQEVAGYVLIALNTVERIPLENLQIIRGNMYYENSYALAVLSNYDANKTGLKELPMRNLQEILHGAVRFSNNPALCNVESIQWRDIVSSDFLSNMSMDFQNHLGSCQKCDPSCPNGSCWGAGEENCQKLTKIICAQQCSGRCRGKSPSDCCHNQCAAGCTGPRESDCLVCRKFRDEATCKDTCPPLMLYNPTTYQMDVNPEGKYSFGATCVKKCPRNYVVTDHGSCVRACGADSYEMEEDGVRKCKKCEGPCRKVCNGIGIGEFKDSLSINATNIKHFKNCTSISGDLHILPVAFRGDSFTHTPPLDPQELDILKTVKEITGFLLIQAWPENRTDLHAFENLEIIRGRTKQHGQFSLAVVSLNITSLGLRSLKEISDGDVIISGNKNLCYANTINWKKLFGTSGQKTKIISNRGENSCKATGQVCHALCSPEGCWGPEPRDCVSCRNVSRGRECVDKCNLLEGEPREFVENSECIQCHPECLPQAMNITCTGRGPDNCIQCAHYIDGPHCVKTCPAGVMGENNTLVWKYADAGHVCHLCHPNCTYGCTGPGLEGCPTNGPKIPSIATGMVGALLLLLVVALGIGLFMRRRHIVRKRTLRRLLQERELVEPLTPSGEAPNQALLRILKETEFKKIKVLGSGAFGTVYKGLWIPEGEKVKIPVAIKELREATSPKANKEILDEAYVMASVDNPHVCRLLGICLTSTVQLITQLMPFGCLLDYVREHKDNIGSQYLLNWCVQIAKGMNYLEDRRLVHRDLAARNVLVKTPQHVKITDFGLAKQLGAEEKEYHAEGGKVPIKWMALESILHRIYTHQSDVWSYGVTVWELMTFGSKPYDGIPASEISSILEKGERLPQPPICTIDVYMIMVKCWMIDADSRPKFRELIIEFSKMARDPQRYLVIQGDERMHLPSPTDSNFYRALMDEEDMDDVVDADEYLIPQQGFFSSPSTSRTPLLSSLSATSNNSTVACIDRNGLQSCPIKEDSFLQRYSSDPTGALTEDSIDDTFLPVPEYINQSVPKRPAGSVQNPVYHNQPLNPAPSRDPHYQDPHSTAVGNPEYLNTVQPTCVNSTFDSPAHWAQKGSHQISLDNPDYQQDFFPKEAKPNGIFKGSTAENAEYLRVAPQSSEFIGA
Sequence of CSNK1G2 (P78368 whole entry): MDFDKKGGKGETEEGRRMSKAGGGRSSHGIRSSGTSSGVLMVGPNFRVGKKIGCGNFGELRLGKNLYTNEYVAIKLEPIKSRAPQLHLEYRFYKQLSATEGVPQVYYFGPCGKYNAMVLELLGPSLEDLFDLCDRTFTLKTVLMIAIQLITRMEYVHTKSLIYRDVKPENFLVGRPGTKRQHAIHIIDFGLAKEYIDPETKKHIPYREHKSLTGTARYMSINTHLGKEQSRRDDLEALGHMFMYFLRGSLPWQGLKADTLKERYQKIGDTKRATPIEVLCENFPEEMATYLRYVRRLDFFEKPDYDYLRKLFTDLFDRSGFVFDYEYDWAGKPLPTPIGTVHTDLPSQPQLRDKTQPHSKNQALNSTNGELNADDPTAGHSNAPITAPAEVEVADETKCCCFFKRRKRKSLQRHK

Take `Cc1cn(-c2cc(NC(=O)c3ccc4c(c3)CN(c3cncnc3)C[C@@H]4C)cc(C(F)(F)F)c2)cn1` [Compound 6j]: the remaining activity at 1 µM on NEK7 is 87%; at ERBB4 it was 100%; on CDK2, 86%; at DYRK1A, 100%; on SYK it was 93%; at EGFR(L861Q), 97%. Further, the remaining activity at 1 µM was determined as 96% on PCTK2, 64% on TIE2 and 92% at CSNK1G2.
